Source: patent US20070117743A1, “New antitumoral compounds” (priority 2003, published 2007)
Where two headings read alike, the source gives them in different places. Where a SMILES comes first, the peptide text is derived from it. Bridges are numbered along the chain shown (N, C = ends). [ ]: non-standard residue; d: D form. The star is where a group is joined. d(aIle) = CC[C@H](C)[C@@H](N)C(=O)O; d(aThr) = C[C@@H](O)[C@@H](N)C(=O)O; Hexanoyl(5-Me) = CC(C)CCCC(=O)*; Orn = NCCC[C@H](N)C(=O)O; Dhb = C/C=C(\N)C(=O)O

Key:
Type in all cases: cell-based, human
A-549 = assay: SRB colorimetric assay of cell growth and viability, A-549; conditions: 48 hours exposure; for GI50: read-out: GI50 A-549; for CC50: read-out: LC50 A-549
SK-MEL-28 = assay: SRB colorimetric assay of cell growth and viability, SK-MEL-28; conditions: 48 hours exposure; for CC50: read-out: LC50 MEL-28
HT-29 = assay: SRB colorimetric assay of cell growth and viability, HT-29; conditions: 48 hours exposure; for GI50: read-out: GI50 HT-29; for CC50: read-out: LC50 HT-29
LoVo = assay: SRB colorimetric assay of cell growth and viability, LoVo; conditions: 48 hours exposure; for CC50: read-out: LC50 LOVO
LoVo-Dox = assay: SRB colorimetric assay of cell growth and viability, LoVo-Dox; conditions: 48 hours exposure; for CC50: read-out: LC50 LOVO-DOX
Summary of the method: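 Optical density at 490 nm of solubilized SRB, from triplicate wells, yields GI, TGI and LC values. Before staining, cells are fixed for 60 minutes at 4° C in cold TCA after a 48-hour exposure.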

DU-145 = assay: SRB colorimetric assay of cell growth and viability, DU-145; conditions: 48 hours exposure
LNCaP = assay: SRB colorimetric assay of cell growth and viability, LNCaP; conditions: 48 hours exposure; for GI50: read-out: GI50 LN-caP; for CC50: read-out: LC50 LN-caP
SK-BR-3 = assay: SRB colorimetric assay of cell growth and viability, SK-BR-3; conditions: 48 hours exposure
IGROV-1 = assay: SRB colorimetric assay of cell growth and viability, IGROV-1; conditions: 48 hours exposure
IGROV-ET = assay: SRB colorimetric assay of cell growth and viability, IGROV-ET; conditions: 48 hours exposure; for CC50: read-out: LC50 IGROV-ET
HeLa = assay: SRB colorimetric assay of cell growth and viability, HeLa; conditions: 48 hours exposure; for CC50: read-out: LC50 HELA
HeLa-APL = assay: SRB colorimetric assay of cell growth and viability, HeLa-APL; conditions: 48 hours exposure; for CC50: read-out: LC50 HELA-APL
K-562 = assay: SRB colorimetric assay of cell growth and viability, K-562; conditions: 48 hours exposure; for CC50: read-out: LC50 K-562
PANC-1 = assay: SRB colorimetric assay of cell growth and viability, PANC-1; conditions: 48 hours exposure; for CC50: read-out: LC50 PANC-1

## C/C=C1\NC(=O)[C@H](Cc2ccccc2)NC(=O)[C@@H](C(C)C)NC(=O)[C@@H]([C@@H](C)CC)NC(=O)[C@H](NC(=O)[C@H](NC(=O)[C@H](CCCN)NC(=O)[C@H]2CCCN2C(=O)[C@H](NC(=O)[C@H](CCCN)NC(=O)[C@@H](NC(=O)[C@H](NC(=O)CCCC(C)C)C(C)C)[C@@H](C)O)C(C)C)[C@@H](C)CC)[C@@H](C)OC(=O)[C@H](C(C)C)NC1=O [Compound 49, [Orn^11]-KF] ({Hexanoyl(5-Me)}-[dV]T[Orn][dV][dP][Orn][d(aIle)][d(aThr)][d(aIle)][dV]F[Dhb]V; ester 8-C)
A-549
  TGI A-549: 6.70E−06 Molar
  GI50: 2610 nM
  CC50: 6700 nM
SK-MEL-28
  GI50: 1330 nM
  TGI MEL-28: 2.50E−06 Molar
  CC50: 4690 nM
HT-29
  TGI HT-29: 3.74E−06 Molar
  GI50: 1580 nM
  CC50: 6700 nM
LoVo
  GI50: 1470 nM
  TGI LOVO: 3.80E−06 Molar
  CC50: 6700 nM
LoVo-Dox
  GI50: 3220 nM
  TGI LOVO-DOX: 6.70E−06 Molar
  CC50: 6700 nM
DU-145
  GI50: 1090 nM
  LC50 (concentration causing 50% net cell kill): 5750 nM
  TGI DU-145: 2.50E−06 Molar
LNCaP
  TGI LN-caP: 6.70E−06 Molar
  GI50: 2200 nM
  CC50: 6700 nM
SK-BR-3
  GI50: 1940 nM
  LC50: 6700 nM
  TGI SK-BR-3: 5.57E−06 Molar
IGROV-1
  GI50: 1270 nM
  LC50 (concentration causing 50% net cell killing): 5970 nM
  TGI IGROV: 2.75E−06 Molar
IGROV-ET
  GI50: 1910 nM
  TGI IGROV-ET: 5.15E−06 Molar
  CC50: 6700 nM
HeLa
  GI50: 1100 nM
  TGI HELA: 2.20E−06 Molar
  CC50: 4400 nM
HeLa-APL
  GI50: 1070 nM
  TGI HELA-APL: 2.52E−06 Molar
  CC50: 5950 nM
K-562
  GI50: 150 nM
  TGI K-562: 1.67E−06 Molar
  CC50: 6700 nM
PANC-1
  GI50: 1310 nM
  TGI PANC-1: 3.09E−06 Molar
  CC50: 6700 nM

## C/C=C1\NC(=O)[C@H](Cc2ccccc2)NC(=O)[C@@H](C(C)C)NC(=O)[C@@H]([C@@H](C)CC)NC(=O)[C@H](NC(=O)[C@H](NC(=O)[C@H](CCCN)NC(=O)[C@H]2CCCN2C(=O)[C@H](NC(=O)[C@@H](NC(=O)[C@@H](NC(=O)[C@H](NC(=O)CC[C@H](C)CC)C(C)C)[C@@H](C)O)C(C)C)C(C)C)[C@@H](C)CC)[C@@H](C)OC(=O)[C@H](C(C)C)NC1=O [Compound 16, [(4R)-MeHex^14]-KF]
A-549
  TGI A-549: 2.26E−06 Molar
  GI50: 1200 nM
  CC50: 4240 nM
SK-MEL-28
  GI50: 1140 nM
  TGI MEL-28: 2.09E−06 Molar
  CC50: 3800 nM
HT-29
  TGI HT-29: 1.54E−06 Molar
  GI50: 738 nM
  CC50: 3220 nM
LoVo
  GI50: 248 nM
  TGI LOVO: 7.78E−07 Molar
  CC50: 2280 nM
LoVo-Dox
  GI50: 288 nM
  TGI LOVO-DOX: 7.71E−07 Molar
  CC50: 2190 nM
DU-145
  GI50: 1200 nM
  LC50 (concentration causing 50% net cell kill): 3820 nM
  TGI DU-145: 2.14E−06 Molar
LNCaP
  TGI LN-caP: 2.46E−06 Molar
  GI50: 1500 nM
  CC50: 4040 nM
SK-BR-3
  GI50: 1250 nM
  LC50: 3860 nM
  TGI SK-BR-3: 2.20E−06 Molar
IGROV-1
  GI50: 941 nM
  LC50 (concentration causing 50% net cell killing): 3500 nM
  TGI IGROV: 1.81E−06 Molar
IGROV-ET
  GI50: 805 nM
  TGI IGROV-ET: 1.62E−06 Molar
  CC50: 3260 nM
HeLa
  GI50: 1050 nM
  TGI HELA: 1.93E−06 Molar
  CC50: 3550 nM
HeLa-APL
  GI50: 1560 nM
  TGI HELA-APL: 3.47E−06 Molar
  CC50: ≥ 6770 nM
K-562
  GI50: 3730 nM
  TGI K-562: 6.77E−06 Molar
  CC50: ≥ 6770 nM
PANC-1
  GI50: 4700 nM
  TGI PANC-1: 4.24E−06 Molar
  CC50: 4240 nM

## C/C=C1\NC(=O)[C@H](Cc2ccccc2)NC(=O)[C@@H](C(C)C)NC(=O)[C@@H]([C@@H](C)CC)NC(=O)[C@H](NC(=O)[C@H](NC(=O)[C@H](CCCNC(=O)CCCC[C@@H]2SC[C@@H]3NC(=O)N[C@@H]32)NC(=O)[C@H]2CCCN2C(=O)[C@H](NC(=O)[C@@H](NC(=O)[C@@H](NC(=O)[C@H](NC(=O)CCCC(C)C)C(C)C)[C@@H](C)O)C(C)C)C(C)C)[C@@H](C)CC)[C@@H](C)OC(=O)[C@H](C(C)C)NC1=O [Compound 99, [Orn(Biot)^8]-Kahalalide F]
A-549; A-549
  TGI A-549: 2.05E−06 Molar
  GI50: 886 nM
  CC50: 4760 nM
SK-MEL-28; SRB
  GI50: 839 nM
  TGI MEL-28: 1.73E−06 Molar
  CC50: 3540 nM
HT-29; HT-29
  TGI HT-29: 2.41E−07 Molar
  GI50: 124 nM
  CC50: 467 nM
LoVo; LOVO
  GI50: 129 nM
  TGI LOVO: 2.53E−07 Molar
  CC50: 495 nM
LoVo-Dox; LOVO-DOX
  GI50: 139 nM
  TGI LOVO-DOX: 3.10E−07 Molar
  CC50: 3930 nM
DU-145; SRB
  GI50: 757 nM
  LC50 (concentration causing 50% net cell kill): 3260 nM
  TGI DU-145: 1.57E−06 Molar
LNCaP; SRB
  TGI LN-caP: 1.99E−06 Molar
  GI50: 1020 nM
  CC50: 3890 nM
SK-BR-3; SRB
  GI50: 140 nM
  LC50: 575 nM
  TGI SK-BR-3: 2.84E−07 Molar
IGROV-1; SRB
  GI50: 268 nM
  LC50 (concentration causing 50% net cell killing): 2690 nM
  TGI IGROV: 8.98E−07 Molar
IGROV-ET; SRB
  GI50: 874 nM
  TGI IGROV-ET: 1.88E−06 Molar
  CC50: 4040 nM
HeLa; HELA
  GI50: 329 nM
  TGI HELA: 1.19E−06 Molar
  CC50: 3510 nM
HeLa-APL; HELA-APL
  GI50: 951 nM
  TGI HELA-APL: 2.10E−06 Molar
  CC50: 4650 nM
K-562; K-562
  GI50: 3300 nM
  TGI K-562: 5.87E−06 Molar
  CC50: 5870 nM
PANC-1; PANC-1
  GI50: 1500 nM
  TGI PANC-1: 3.50E−06 Molar
  CC50: 5870 nM
